Key:
[1] = tested on: MCF-7 cells; assay: Cell cycle analysis by flow cytometry (propidium iodide); format: cell-based, human; settings: for G0/G1 % / G2/M % / S % / Sub-G1 %: mean ± S.E.M.; for accumulation of cells in the G2/M phase (in words): 24 hours; for percent sub-G1 cells compared with noscapine: lower doses (5 μM and 10 μM), 72 hours
Procedure: The flow cytometric evaluation of the cell cycle status was performed as described previously. Briefly, 2×10^6 cells were centrifuged, washed twice with ice-cold PBS, and fixed in 70% ethanol. Tubes containing the cell pellets were stored at 4° C. for at least 24 hours. Cells were then centrifuged at 1000×g for 10 min and the supernatant was discarded. The pellets were washed twice with 5 ml of PBS and then stained with 0.5 ml of propidium iodide (0.1% in 0.6% Triton-X in PBS) and 0.5 ml of RNase A (2 mg/ml) for 45 minutes in dark. Samples were then analyzed on a FACSCalibur flow cytometer (Beckman Coulter Inc., Fullerton, Calif.).
To investigate the precise mechanisms of cell death, the effect of 9-cloro-noscapine and other halogenated noscapine analogs on percent G2/M cells (mitotic index) and percent sub-G1 cells (apoptotic index) was examined as a function of dose and time in MCF-7 cells using fluorescence activated cell sorting (FACS) analysis. The effect of all compounds including noscapine was evaluated at three doses-5 μM, 10 μM and 25 μM for 0, 24, 48 and 72 hours of drug treatment. […] Fluorescently labeled DNA is a good indicator of cell cycle progression and cell death. An unreplicated complement of diploid (2N) DNA cells represents the G1 phase while duplicated tetraploid (4N) DNA cells represent G2 and M phases. Cells in the process of DNA duplication between diploid and tetraploid peaks represent S phase when DNA is being synthesized. Less than diploid DNA appears in populations of dying cells that degrade their DNA to different extents. Treatment of MCF-7 cells with these compounds for 0, 24, 48 and 72 hours led to profound perturbations of the cell cycle profile at 25 μM (FIGS. 3 A-D). […] The distribution of cell population over G0/G1, S, G2/M and sub-G1 phases of the cell cycle for 25 μM concentration is shown in Table 1.

[2] = molecular target: tubulin; settings: literature value [18]; read-out: dissociation constant (Kd) for binding to tubulin; cited from earlier work

SMILES | G0/G1 % ([1]; 25 μM, 0 h) [%] | G2/M % ([1]; 25 μM, 0 h) [%] | S % ([1]; 25 μM, 0 h) [%] | Sub-G1 % ([1]; 25 μM, 0 h) [%] | G0/G1 % ([1]; 25 μM, 24 h) [%] | G2/M % ([1]; 25 μM, 24 h) [%] | S % ([1]; 25 μM, 24 h) [%] | Sub-G1 % ([1]; 25 μM, 24 h) [%] | accumulation of cells in the G2/M phase (in words) ([1]; 25 μM) | G0/G1 % ([1]; 25 μM, 48 h) [%] | G2/M % ([1]; 25 μM, 48 h) [%] | S % ([1]; 25 μM, 48 h) [%] | Sub-G1 % ([1]; 25 μM, 48 h) [%] | G0/G1 % ([1]; 25 μM, 72 h) [%] | G2/M % ([1]; 25 μM, 72 h) [%] | S % ([1]; 25 μM, 72 h) [%] | percent sub-G1 cells compared with noscapine [1] | Sub-G1 % ([1]; 25 μM, 72 h) [%] | sub-G1 population compared with noscapine ([1]; 25 μM) | Kd [2] [µM]
COc1ccc2c(c1OC)C(=O)O[C@@H]2[C@H]1c2c(c(Br)c3c(c2OC)OCO3)CCN1C [9-Br-nos] | 53.3 ± 2.8 | 28.9 ± 4.4 | 12.7 ± 1.8 | 0.2 ± 0.1 | 10.4 ± 1.8 | 61.9 ± 3.6 | 3.4 ± 1.2 | 6.9 ± 2.4 | massive accumulation of cells in the G2/M phase | 6.5 ± 2.5 | 43.8 ± 3.4 | 2.8 ± 0.7 | 35.1 ± 3.5 | 4.6 ± 2.1 | 33.7 ± 3.5 | 2.4 ± 1.6 | higher | – | – | –
COc1ccc2c(c1OC)C(=O)O[C@@H]2[C@H]1c2c(c(F)c3c(c2OC)OCO3)CCN1C [9-F-nos] | 67.7 ± 5.6 | 18.5 ± 2.2 | 11.9 ± 1.5 | 0.2 ± 0.04 | 10.8 ± 2.4 | 65.9 ± 4.4 | 3.8 ± 1.1 | 6.8 ± 2.1 | massive accumulation of cells in the G2/M phase | 7.9 ± 2.8 | 43.7 ± 2.9 | 3.5 ± 0.8 | 34.5 ± 2.5 | 5.2 ± 2.2 | 34.4 ± 3.4 | 3.6 ± 1.5 | higher | 48.6 ± 3.3 | – | –
COc1ccc2c(c1OC)C(=O)O[C@@H]2[C@H]1c2c(c(I)c3c(c2OC)OCO3)CCN1C [9-I-nos] | 60.6 ± 4.6 | 23.1 ± 3.7 | 13.9 ± 2.3 | 0.3 ± 0.2 | 17 ± 2.3 | 44.5 ± 5.1 | 3.1 ± 1.3 | 7.7 ± 1.7 | – | 15.4 ± 4.5 | 25.9 ± 4.1 | 2.9 ± 0.6 | 28.1 ± 3.1 | 17 ± 1.9 | 20.7 ± 2.2 | 4.9 ± 2.2 | – | 30.1 ± 3.1 | slightly lower | –
COc1ccc2c(c1OC)C(=O)O[C@@H]2[C@H]1c2c(cc3c(c2OC)OCO3)CCN1C [Nos, (S)-6,7-dimethoxy-3-((R)-4-methoxy-6-methyl-5,6,7,8-tetrahydro[1,3]-dioxolo-[4,5-g]isoquinolin-5-yl)isobenzo-furan-1(3H)-one, reference compound] | 54.8 ± 0.03 | 29.9 ± 2.2 | 13.2 ± 0.2 | 0.2 ± 0.03 | 18.3 ± 3.3 | 50.2 ± 3.6 | 3.4 ± 0.8 | 10.2 ± 1.2 | – | 19.8 ± 1.9 | 28.07 ± 0.2 | 4.1 ± 0.6 | 36.8 ± 3.7 | 20.5 ± 0.2 | 26.3 ± 0.2 | 7.06 ± 0.2 | – | 36.9 ± 0.2 | – | 144 ± 2.8

Source: patent US20100249172A1, “9-CHLORO NOSCAPINE AND ITS USE IN TREATING CANCERS, INCLUDING DRUG-RESISTANT CANCERS” (EMORY UNIVERSITY, priority 2007, published 2010)
